Experimental data as given in patent publication US10675257B2, “Method of treating cancer with a combination of benzylideneguanidine derivatives and chemotherapeutic agent” (InFlectis BioScience, priority 2015, dated 2020).
Entries after “also recorded” stand apart in the source; their conditions may differ. Where a name gives a salt, the structure may show the parent alone.

Tested on: glioblastoma cell line GL261
Assay: GL261 glioblastoma tumor grafted on the chorio-allantoic membrane (CAM) of embryonated chicken eggs, tumor weight at E19
Format: in vivo, chicken embryo (Fertilized White Leghorn eggs)
Details: for Tumor weight (mg) (N = 18) / Tumor weight (mg) (N = 7 to 12): after 10 days of treatment; for Effect on GL261 tumor size/weight on the upper CAM, in words: test compound (100 nM) together with temozolomide (500 microM), compared to temozolomide alone or compound alone; for Effect on GL261 tumor size, in words: test compound alone (100 nM)
Method: Fertilized White Leghorn eggs were incubated at 38° C. with 60% relative humidity for 9 days. At this time (E9), the chorio-allantoic membrane (CAM) was dropped by drilling a small hole through the eggshell into the air sac and a 1 cm^2 window was cut in the eggshell above the CAM.
Cultured glioblastoma cell line GL261 were detached by trypsinization, washed with complete medium, labeled and suspended in serum free DMEM. An inoculum of GL261 cells was added onto the CAM of each egg. Eggs were then randomized in 6 groups.
They were then treated during 10 days, every two days (E10, E12, E14, E16, E18), by dropping 100 μl of test compound (100 nM), Temozolomide (500 microM), test compound (100 nM) and Temozolomide (500 microM), or Control (0.02% DMSO) onto the tumor.
At day E19 the upper portion of the CAM was removed, transferred in PBS and the tumors were then carefully cut away from normal CAM tissue. Tumors were then weighted. In parallel, a 1 cm^2 portion of the lower CAM was collected to evaluate the number of nodules, containing expressing cells. The fluorescent nodules were visualized in situ using whole mounts of fixed tissue and flattened between a hollow glass slide and a thick coverslip. In order to number the nodules, a thorough and complete visual scan of the piece of the lower CAM was done using fluorescent microscope.
Glioblastoma cell line GL261 was grafted on the chorio-allantoic membrane (CAM) of Fertilized White Leghorn eggs. The tumors were treated every two days with test compound ([…]), temolozomide (500 microM) or test compound (100 nM) and temozolomide (500 microM). For the control, the tumors were treated with 0.02% DMSO. Between seven (7) to eighteen (18) eggs were treated for each condition.

[1] = combination test compound/Temozolomide 100 nM/500microM, control 120.5
[2] = combination test compound/Temozolomide 100 nM/500 μM, control 106.65
[3] = test compound alone 100 nM, control (0.02% DMSO) 106.65

Row | Structure (SMILES) | Tumor weight (mg) (N = 7 to 12) [2] | Effect on GL261 tumor size, in words | Effect on GL261 tumor size/weight on the upper CAM, in words | further results
1 | NC(N)=N/N=C/c1c(Cl)cccc1Cl [Compound 1, 2-(2,6-dichlorobenzylidene)hydrazine carboximidamide, reference compound] |  |  |  | Tumor weight (mg) (N = 18) [1]: 68.3 mg; Tumor weight (mg) (N = 18) (test compound alone 100 nM, control (0.02% DMSO) 120.5): 115 mg
2 | CC(=O)O.N=C(N)N/N=C/c1ccncc1Cl [Compound 6, 2-[(3-chloropyridin-4-yl)methylidene]hydrazinecarboximidamide Acetate] | 70.45 |  |  | Effect on GL261 tumor size/weight on the upper CAM, in words (Acetate): synergistic reduction of GL261 tumor weight; also recorded: synergistic effect to reduce the tumor size; Tumor weight (mg) (N = 7 to 12) [3]: 107.76 mg; Effect on GL261 tumor size, in words (Acetate): no effect on tumor size reduction; also recorded: no effect to reduce the tumor size
3 | CC(C)CCO/N=C(\N)N/N=C/c1ccccc1Cl [Compound 11, Formate Salt] | 67.29 | reduces the tumor size |  | Effect on GL261 tumor size/weight on the upper CAM, in words (Formate Salt): synergistic reduction of GL261 tumor weight; also recorded: synergistic effect to reduce the tumor size; Tumor weight (mg) (N = 7 to 12) [3]: 87.63 mg
4 | C=CCO/N=C(\N)N/N=C/c1ccccc1Cl [Compound 15, 2-(2-chlorobenzylidene)-N′-(prop-2-en-1-yloxy)hydrazine Carboximidamide] | 40.66 | reduces the tumor size | synergistic reduction of GL261 tumor weight; also recorded: synergistic effect to reduce the tumor size | Tumor weight (mg) (N = 7 to 12) [3]: 63.44 mg
5 | N/C(=N\OCCO)N/N=C/c1ccccc1Cl [Compound 16, 2-(2-chlorobenzylidene)-N′-(2-hydroxyethoxy)hydrazinecarboximidamide] | 48.11 | display anti-glioma activity by reducing the tumor size | further reduction of GL261 tumor weight; also recorded: further reduce the tumor size | 
6 | CCO/N=C(\N)N/N=C/c1ccccc1Cl [Compound 20, 2-(2-chlorobenzylidene)-N′-ethoxyhydrazinecarboximidamide] | 73.51 | display anti-glioma activity by reducing the tumor size | further reduction of GL261 tumor weight; also recorded: further reduce the tumor size | 
7 | CCCO/N=C(\N)N/N=C/c1ccccc1Cl [Compound 22, 2-(2-chlorobenzylidene)-N-propoxyhydrazinecarboximidamide] |  |  | synergistic reduction of GL261 tumor weight; also recorded: synergistic effect to reduce the tumor size | Tumor weight (mg) (N = 18) [1]: 48.4 mg
8 | CCSCCO/N=C(\N)N/N=C/c1ccccc1Cl [Compound 25, 2-(2-chlorobenzylidene)-N-[2-(ethylsulfanyl)ethoxy]hydrazinecarboximidamide] | 43.6 |  |  | 
9 | CCO/N=C(\N)N/N=C/c1ccncc1Cl [Compound 26, 2-[(3-chloropyridin-4-yl)methylidene]-N-ethoxyhydrazinecarboximidamide] | 66.23 | display anti-glioma activity by reducing the tumor size | further reduction of GL261 tumor weight; also recorded: further reduce the tumor size | 
10 | CCCCO/N=C(\N)N/N=C/c1ccccc1Cl [Compound 28, N′-butoxy-2-(2-chlorobenzylidene)hydrazinecarboximidamide] | 51.33 | display anti-glioma activity by reducing the tumor size | further reduction of GL261 tumor weight; also recorded: further reduce the tumor size | 
11 | CCCO/N=C(\N)N/N=C/c1c(F)cccc1Cl [Compound 29, 2-(2-chloro-6-fluorobenzylidene)-N′-propoxyhydrazinecarboximidamide] | 54.13 | display anti-glioma activity by reducing the tumor size | further reduction of GL261 tumor weight; also recorded: further reduce the tumor size | 
12 | CCCO/N=C(\N)N/N=C/c1ccncc1Cl [Compound 33, 2-[(3-chloropyridin-4-yl)methylidene]-N-propoxyhydrazinecarboximidamide] | 62.42 | display anti-glioma activity by reducing the tumor size | further reduction of GL261 tumor weight; also recorded: further reduce the tumor size | 
13 | Cn1nnc2c(C(N)=O)ncn2c1=O [Temozolomide, 3,4-dihydro-3-methyl-4-oxoimidazo [5,1-d]-as-tetazine-8-carboxamide, reference compound] |  |  |  | Tumor weight (mg) (N = 7 to 12) (Temozolomide alone 500 μM, control (0.02% DMSO) 106.65): 90.17 mg; Tumor weight (mg) (N = 18) (Temozolomide alone 500microM, control (0.02% DMSO) 120.5): 86.3 mg
